Data as given in US20110306035A1, “Methods and Compositions for Detection of a Pathogen, Disease, Medical Condition, or Biomarker Thereof” (priority 2008, published 2011).
“And” between values parts separate entries of the source, which are not always exact repeats. Identical values can stand only once. Square brackets hold non-standard residues; d marks the D form. Peptide text beside a SMILES is read from it. * marks the point of attachment. Sta = CC(C)C[C@H](N)[C@@H](O)CC(=O)O; pNA = O=[N+]([O-])c1ccc(N*)cc1; Isovaleryl = CC(C)CC(=O)*; MeOSuc = COC(=O)CCC(=O)*

Experiments:
[1] = molecular target: T1, recombinant HRV 3C protease (Human rhinovirus 14, UniProt P03303); experiment: HRV 3C protease activity with inhibitors (Buffer+3C, PEP1); assay type: biochemical; conditions: 4 μM PEP1; 50 nM recombinant HRV 3C protease
T1 construct: Reactions were performed at 4 μM PEP1 and 50 nM recombinant HRV 3C protease
Procedure: (§1) All inhibitors were dissolved at 100×, aliquoted, stored and used according to the manufacturers' instructions. No freeze thaw cycles were imposed on the inhibitors. Prior to starting the assay by addition of substrate, 10 μl of the cocktail or individual inhibitor was incubated for 5 min with 90 μl of the sample/buffer+ HRV protease.
(§2) To test the effect of the inhibitors on protease activity (Buffer+3C) and on background noise present in a nasal wash specimen pool, reaction rates were compared with or without the inhibitors in question (Table 12). Reactions were performed at 4 μM PEP1 and 50 nM recombinant HRV 3C protease for 5 min under starting buffer environment. A nasal wash specimen pool of four HRV negative specimens by RT-PCR was used due to insufficient volume from an individual specimen and to reproduce equal conditions throughout the experiments.
(§3) Results with and without inhibitory cocktail and with cocktail+recombinant HRV 3C protease are shown for both the specimen pool (FIG. 21A) and human WBC at ˜1×10^6 cell/ml (FIG. 21B). […] Spiking of recombinant HRV 3C protease to reactions with the inhibitory cocktail induced specific HRV protease activities at normal rates. Reactions were performed with 4 μM PEP1 and 50 nM recombinant HRV 3C protease where indicated (by +3C). The data are representative of two independent repeats.

[2] = test system: non specific proteolytic activity of the nasal wash specimen; experiment: Background noise in nasal wash specimen pool (HRV assay, PEP1); assay type: biochemical; conditions: 4 μM PEP1; 5 min
Procedure: as §1, §2, §3

[3] = molecular target: T2, Recombinant protease from enterovirus strain Echo (Echovirus 30, UniProt Q9WN78); experiment: Enterovirus assay optimization with recombinant Echo protease (plates, tubes, buffer, Na2SO4, substrate concentration, diluent); assay type: biochemical; conditions: for enzymatic activity: 0.25 uM substrate
T2 construct: Phosphoramidon was tested using the Echovirus 3C recombinant
Procedure: • Inhibitor Cocktail: Inhibitors cocktail I10 • Enzyme dilution buffer: −25 mM HEPES pH 7.5, 150 mM NaCl, 1 mM EDTA, 10% Glycerol, 0.5 mg/ml BSA, 1M Sucrose, 0.1% Sodium azid. • 2× reaction buffer, Buffer B: 50 mM HEPES, 10 mM EDTA, 10 mM EGTA, 1.2M Na2SO4, sodium azide 0.1%, pH 8.5 • Artificial CSF: NaCl 125 mM, KCl 2.5 mM, MgCl 1 mM, NaH2PO4 1.25 mM, CaCl2 2 mM, Glucose 2.5 mM, NaHCO3 25 mM, 0.1% Sodium azide, HEPES 25 mM, pH 7.45. • Enzyme: Recombinant protease from enterovirus strain “Echo” [dilution 1:18 • Substrate: Camb-2.3, 1 mM, Camb-2.4, 2 mM. (Different batches for the same Camb2 sequence) • HEPES Buffer: HEPES 25 mM • NB tubes: Sigma Cat #Z666505 • Amber tubes: USA scientific Inc. Cat. 1620-2707 • 96 well Plate: Dark bottom NB plate—Greiner Cat. 655900
• 1. Add artiCSF±HEPES buffer to plate • 2. Prepare 400 ul HEPES buffer±RB+substrate (camb2.3 and 2.4) in both amber and NB tubes. • 3. Add enzyme to wells • 4. Add HEPES buffer±RB+substrate to wells with multichannel pipette.
The reaction buffer is a part of the enterovirus test kit of the invention. The camb-2 substrate is dissolved in the reaction buffer. The reaction buffer contains different salts to allow the tested enzyme to work at the optimal conditions. The current reaction buffer composition is: HEPES pH 7.5, 300 mM NaCl, 10 mM EDTA, 10 mM EGTA, 10% Glycerol, 1.8M Na2SO4, 0.1% Sodium azide. The amount of salt in the reaction buffer is high and allows optimal enzymatic activity. However, under these conditions, substrate solubility is affected. Thus, the reaction buffer was improved to increase substrate solubility without reducing enzymatic activity of the tested 3C protease.
300 mM NaCl and 10% glycerol was removed from the reaction buffer and several reduced concentrations of Na2SO4 (starting at 0.9M) were tested in order to determine the minimal salt requirements of the assay (Tables 31-34). Experiments were repeated at least three times by two different scientists.
CSF sample was incubated with 50 nM Echo protease and 2× reaction buffer with 0.6M Na2SO4. Also included were 3 blanks and 9 positive control repetitions.
The effect of reduction in substrate (camb2) concentration and increase in measurement time was tested. The experiment was performed at a final substrate (camb2.5) concentrations of 1, 0.5, 0.25 and 0.125 μM and data analysis was made at different time intervals: 1.5-5, 5-12 and 5-22 min (FIGS. 27A-C).
Sodium sulfate generally has an ambivalent effect: it increase 3C protease activity and reduces substrate solubility. Once it was decided that the substrate concentration would be reduced to 0.25 uM and results analyzed at between 5-10 min, the Na2SO4 concentration was optimized. […] 0.6-0.4M Na2SO4 was tested under the new assay conditions.
• Data analysis was performed between 5-10 min. • The assay activity was measured in triplicates by three scientists. The results in Table 51 are the average of the three triplicates.
To examine the effect of substrate dilution in DMSO vs. DDW under the new assay conditions, substrate stock (1 mM in DMSO) was diluted 1:8 in DMSO or in DDW to yield the working stock. The working stocks were further diluted 1:250 in 2× RB for a concentration of 0.5 uM (0.25 uM final in the well).
The assay activity was measured in triplicates by three scientists. The results in Table 52 are the average of the three triplicates.

PSA = PSA (Homo sapiens, UniProt P07288); conditions: in the presence of 1.3M Na2SO4; cited from earlier work
a-Chymotrypsin Type IV = molecular target: T3, a-Chymotrypsin Type IV (Bos taurus, UniProt P00766, DEL14-15/DEL147-148); experiment: Competition inhibition of chymotrypsin by two substrates; assay type: biochemical; conditions: Sub.-1 50 nM, Enzyme 100 pg/ml
T3 construct: purchased
Procedure: • Dilution and reaction Buffer: HEPES 100 mM pH=7.5. • Substrate 1 (Sub.-1) Camb-2.4 (a batch of Camb2 substrate): FRET substrate based on Alexa 532 fluorophore. • Substrate 2 (Sub.-2): Commercially available colorimetric base (420NM) a-Chymotrypsin substrate. Dissolve in 1:1 HEPES/DMSO to 20 mm. additional 1:10 dilution was done in HEPES buffer. • Enzyme—a-Chymotrypsin: Commercially available a-Chymotrypsin Type IV was diluted in HEPES buffer to a stock of 20 ug/ml. Fluorimeter: DMV, Polar-Star Galaxy. Parameters: • Ex. […]. • Temprature RT. • Total reading Time 10 min. Gain 90
• Solution-1: HEPES buffer. • Solution-2: Substrate-1 stock was diluted 1:10 in 1000 ul HEPES to give a 2× solution of 100 nM. • Solution-3, a-d: Substrate-2 stock was serially diluted 1:10 with HEPES and 10 ul of each dilution was added into 40 ul of HEPES. a-400 uM, b-40 uM, c-4 uM, d-400 nM (10× solutions) • Solution-4: Enzyme stock was diluted 1:20 into 300 ul of HEPES to give a 10× solution.
Using a multi-Channel pipette, the above Solutions were added into a non binding blacked bottom 96 wells plat, using columns 1-6 of rows A-C. 30 ul Solution-1 and 50 ul Solution-2 were added to each well. Into rows A-C, 10 ul of Solution-1 was added to columns 1 and 2, 10 ul Solution-3a was added to column 3, 10 ul Solution-3b was added to column 4, 10 ul Solution-3c was added to column 5 and 10 ul Solution-3d was added to column 6. Into rows A-C. 10 ul of Solution-1 was added to columns 1, 10 ul of Solution-4 was added to columns 2-6. Fluorimertic reading was then started.

T1 sequence (P03303 1538-1719): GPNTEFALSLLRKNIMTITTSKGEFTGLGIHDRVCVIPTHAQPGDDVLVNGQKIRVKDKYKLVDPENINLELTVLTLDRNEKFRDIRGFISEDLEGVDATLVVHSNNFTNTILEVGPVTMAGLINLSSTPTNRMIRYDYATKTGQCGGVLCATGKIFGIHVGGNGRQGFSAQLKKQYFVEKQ
T2 sequence (Q9WN78 1550-1732): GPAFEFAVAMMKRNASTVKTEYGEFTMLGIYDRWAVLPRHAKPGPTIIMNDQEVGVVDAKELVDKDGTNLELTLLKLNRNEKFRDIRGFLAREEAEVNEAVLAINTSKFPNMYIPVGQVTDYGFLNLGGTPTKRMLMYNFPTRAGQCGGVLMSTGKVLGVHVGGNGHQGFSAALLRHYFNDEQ
Chain of PSA (P07288 25-261): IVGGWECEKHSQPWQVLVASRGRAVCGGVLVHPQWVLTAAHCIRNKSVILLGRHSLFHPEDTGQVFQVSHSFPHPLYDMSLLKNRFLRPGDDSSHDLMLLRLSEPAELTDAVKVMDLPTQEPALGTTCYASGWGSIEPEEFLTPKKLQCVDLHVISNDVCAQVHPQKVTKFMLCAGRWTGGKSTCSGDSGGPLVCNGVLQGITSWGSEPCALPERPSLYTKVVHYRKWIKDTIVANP

CC(C)C[C@H](NC(=O)[C@@H](O)[C@H](N)Cc1ccccc1)C(=O)O [Bestatin]
inhibition of HRV 3C protease activity [1]: did not inhibit | effect on the non specific proteolytic activity of the nasal wash specimen [2]: no effect

CC(C)C[C@H](NC(=O)[C@H]1O[C@@H]1C(=O)O)C(=O)NCCCCN=C(N)N [E-64]
inhibition of HRV 3C protease activity [1]: no inhibition

CC(C)[C@@H]1C(=O)N(S(C)(=O)=O)[C@@H]2CCN(C(=O)/C=C/CN3CCCCC3)[C@H]21.Cl [GW311616A]
inhibition of HRV 3C protease activity [1]: did not inhibit

O=S(=O)([O-])[O-].[Na+].[Na+] [Na2SO4]
Positive control reaction rate, 0.4M Na2SO4, Averages ± SE ([3]; 0.4M Na2SO4, average of all experiments, analysis 5-10 min): 444 ± 75 RFU/min | enzymatic activity ([3]; 0.4M sodium sulfate, analysis 5-10 min): 444 | Positive control reaction rate, 0.5M Na2SO4, Averages ± SE ([3]; 0.5M Na2SO4, average of all experiments, analysis 5-10 min): 703 ± 56 RFU/min | enzymatic activity ([3]; 0.5M sodium sulfate, analysis 5-10 min): 700 | Positive control reaction rate, 0.6M Na2SO4, Averages ± SE ([3]; 0.6M Na2SO4, average of all experiments, analysis 5-10 min): 825 ± 31 RFU/min | Positive control reaction rate, 0.6M Na2SO4 ([3]; 0.6M Na2SO4 final, recombinant Echo protease positive control, 0.25 uM camb2.5 substrate, data analysis 5-10 min, single experiments (EXP)): 679 RFU/min and 918 RFU/min and 921 RFU/min and 739 RFU/min and 770 RFU/min and 862 RFU/min and 890 RFU/min and 824 RFU/min | enzymatic activity ([3]; 0.6M sodium sulfate, analysis 5-10 min): 825 | increase of PSA photolytic activity (PSA): > 103 fold

CC(C)CC(=O)N[C@H](C(=O)N[C@H](C(=O)N[C@@H](CC(C)C)[C@@H](O)CC(=O)N[C@@H](C)C(=O)N[C@@H](CC(C)C)[C@@H](O)CC(=O)O)C(C)C)C(C)C [Pepstatin A] (Isovaleryl-VV[Sta]A[Sta]-OH)
inhibition of HRV 3C protease activity [1]: did not inhibit | effect on the non specific proteolytic activity of the nasal wash specimen [2]: no effect

Ac-DEVD-CHO
effect on the non specific proteolytic activity of the nasal wash specimen [2]: no effect

Heparin
inhibition of HRV 3C protease activity [1]: did not inhibit

M-Suc-Ala-Ala-Pro-Phe-p-Nitr (MeOSuc-AAPF-pNA; SMILES COC(=O)CCC(=O)N[C@@H](C)C(=O)N[C@@H](C)C(=O)N1CCC[C@H]1C(=O)N[C@@H](Cc1ccccc1)C(=O)Nc1ccc([N+](=O)[O-])cc1) [Sub.-2, Commercially available colorimetric a-Chymotrypsin substrate]
Inhibition % (a-Chymotrypsin Type IV; Sub.-2 40 nM): 10% | Rate FU/min (Average) (a-Chymotrypsin Type IV; Sub.-2 40 nM): 18000 FU/min | Inhibition % (a-Chymotrypsin Type IV; Sub.-2 400 nM): 20% | Rate FU/min (Average) (a-Chymotrypsin Type IV; Sub.-2 400 nM): 16000 FU/min | Inhibition % (a-Chymotrypsin Type IV; Sub.-2 4 uM): 40% | Rate FU/min (Average) (a-Chymotrypsin Type IV; Sub.-2 4 uM): 12000 FU/min | Inhibition % (a-Chymotrypsin Type IV; Sub.-2 40 uM): 55% | Rate FU/min (Average) (a-Chymotrypsin Type IV; Sub.-2 40 uM): 9000 FU/min
